From ChEMBL document CHEMBL6134903, “Challenging triple negative breast cancer through HDAC6 selective inhibition: Novel cap-group identification, structure-activity relationships, computational and biological studies” (Eur J Med Chem, 2025)

Experiments:
[1] = Cytotoxicity against human HeLa cells assessed as reduction in cell viability incubated for 72 hrs by CellTiter Glo assay; assay type: toxicity, cell-based
physchem = settings: MeOH/H2O, pH 7
Description: Solubility of the compound in MeOH/H20 at pH 7 incubated for 24 hrs by LC-MS/MS analysis

Row | solubility at 24 h (physchem) [µg/mL] | SMILES | IC50 at 72 h [1] [nM] | CC50 at 72 h [1] [nM]
1 | – | O=C(/C=C/c1ccc(CN(CCO)CCc2c[nH]c3ccccc23)cc1)NO [DACINOSTAT] | 30.8 | 30
2 | < 1000 | CN1CCc2c(c3ccccc3n2Cc2ccc(C(=O)NO)cc2)C1 [TUBASTATIN A] | – | –
3 | – | Cc1[nH]c2ccccc2c1CCNCc1ccc(/C=C/C(=O)NO)cc1 [PANOBINOSTAT] | 10.9 | 11
